Consider one molecule from ChEMBL document CHEMBL1629695, “A novel polymyxin derivative that lacks the fatty acid tail and carries only three positive charges has strong synergism with agents excluded by the intact outer membrane” (Antimicrob Agents Chemother, 2010).

A short description of data set [1]: Renal clearance in Sprague-Dawley rat at 1 mg/kg, iv. In kind it is ADME, organism-based, Kidney. Set-up: dose 1 mg/kg, route intravenous. To be noted: in vivo, read-out: CL_renal.
In data set [2] the test system is Acinetobacter baumannii. Kind of data set: Antimicrobial activity against Acinetobacter baumannii ATCC 19606 assessed as zone of inhibition at 10 ug after 18 hrs by disk diffusion method. In kind it is functional.
Data set [3] deals with Escherichia coli. Kind of data set: Antimicrobial activity against Escherichia coli IH3080 assessed as zone of inhibition at 10 ug after 18 hrs by disk diffusion method in presence of 1 ug/ml rifampin. In kind it is functional.
Data set [4] in a line: Total body clearance in Sprague-Dawley rat at 1 mg/kg, iv. To be noted: in vivo. In kind it is ADME, organism-based. The arrangement: dose 1 mg/kg, route intravenous.
For data set [5], the system named is Escherichia coli. Description: Antimicrobial activity against Escherichia coli IH3080 assessed as zone of inhibition at 10 ug after 18 hrs by disk diffusion method. In kind it is functional.
A short description of data set [6]: Drug level in Sprague-Dawley rat urine at 1 mg/kg, iv. In kind it is ADME, organism-based. The arrangement: dose 1 mg/kg, route intravenous. To be noted: Sprague-Dawley, urine, read-out: Drug uptake.
Data set [7] deals with Acinetobacter baumannii. Kind of data set: Antimicrobial activity against Acinetobacter baumannii ATCC 19606 assessed as zone of inhibition at 10 ug after 18 hrs by disk diffusion method in presence of 1 ug/ml rifampin. In kind it is functional.
The next data set relates to V79. Kind of data set: Cytotoxicity against Chinese hamster V79 cells at 0.25 ug/ml to 128 ug/ml after 24 hrs. To be noted: v79, 24 h. In kind it is cell-based, Cricetulus griseus.
The nature of data set [8]: Volume of distribution in Sprague-Dawley rat at 1 mg/kg, iv. To be noted: Sprague-Dawley, in vivo. The arrangement: dose 1 mg/kg, route intravenous. In kind it is ADME, organism-based.
Data set [9] deals with Escherichia coli. Kind of data set: Antimicrobial activity against Escherichia coli F19. In kind it is functional.
For data set [10], the system named is Pseudomonas aeruginosa. Description: Antimicrobial activity against Pseudomonas aeruginosa ATCC 27853 assessed as zone of inhibition at 10 ug after 18 hrs by disk diffusion method in presence of 1 ug/ml rifampin. In kind it is functional.
Data set [11] is described as follows: Plasma concentration in Sprague-Dawley rat at 1 mg/kg, iv administered after 10 minutes. In kind it is ADME, organism-based. Set-up: dose 1 mg/kg, route intravenous.
Data set [12] relates to Pseudomonas aeruginosa. Description: Antimicrobial activity against Pseudomonas aeruginosa ATCC 27853 assessed as zone of inhibition at 10 ug after 18 hrs by disk diffusion method. In kind it is functional.
The test system of a further data set is Enterobacter cloacae. Description: Antimicrobial activity against Enterobacter cloacae ATCC 23355 at 16 ug/ml. In kind it is functional, organism-based.
Data set [13] is described as follows: Half-life in Sprague-Dawley rat at 1 mg/kg, iv. In kind it is ADME, organism-based. The arrangement: dose 1 mg/kg, route intravenous. To be noted: Sprague-Dawley, in vivo.

Structures are written as SMILES. ≈ marks a conversion by molar mass, not a printed value. Calls of active or inactive are those of the source. No cut-off for these calls is given here. Bridge positions count the residues as written; N and C are the ends. Square brackets hold non-standard residues; d marks the D form. Peptide text beside a SMILES is read from it. Dab = NCC[C@H](N)C(=O)O

Regarding `CC(=O)N[C@H](C(=O)N[C@H](CO)C(=O)N[C@H]1CCNC(=O)[C@H]([C@@H](C)O)NC(=O)[C@H](CCN)NC(=O)[C@H](CCN)NC(=O)[C@H](CC(C)C)NC(=O)[C@@H](Cc2ccccc2)NC(=O)[C@H](CCN)NC1=O)[C@@H](C)O` [SPR-741] (Ac-T[dS][Dab][Dab][dF]L[Dab][Dab]T; lactam 3-C), the CL renal in [1] came to 3.78 mL/min/kg. For the same molecule, the “inhibition zone (IZ)” value in the data set on Acinetobacter baumannii [2] amounted to 9 mm2; in the data set on Escherichia coli [3], 230 mm2; in the data set on Escherichia coli [5] it was 12 mm2; with Acinetobacter baumannii [7], 223 mm2; in the data set with Pseudomonas aeruginosa [10] it was 20 mm2; in the data set on Pseudomonas aeruginosa [12] it was 4 mm2. In [4], the clearance amounted to 7.39 mL/min/kg. The dose excreted in data set [6] was found to be 50.9%. The Activity entry in the data set with V79 was “Non-toxic”. This molecule also gave a Vd in data set [8] of 0.243 L/kg. Moreover, the MIC against Escherichia coli [9] turned out to be 16 µg/mL (≈ 16.1 µM). In data set [11], this molecule yielded a concentration at 10 min of 3130 ng/mL. Further, the outcome with Enterobacter cloacae was Active. Also, in [13], the half-life was determined as 32.7 min.
